Results reported in patent US7276519B2, “Thieno[3,2-b]pyridine-6-carbonitriles and thieno[2,3-b]pyridine-5-carbonitriles as protein kinase inhibitors” (Wyeth, priority 2002, dated 2007).
“And” between values parts separate entries of the source, which are not always exact repeats. Equal entries are not always repeated. Where two headings read alike, the source gives them in different places.

Experiments:
[1] = target: T1, Rat2 fibroblasts stably transformed with v-Src/Hu Lck fusion gene (Homo sapiens, UniProt P06239, cells depend on it, form not given); assay: Anchorage independent Lck-transformed fibroblast proliferation assay; format: cell-based, rat
T1 construct: Candidates are e.g. Schmidt-Ruppin A (P00524) or Prague C (P00526); The human Lck catalytic domain stands in place of the v-Src catalytic domain
T1 sequence (P06239 whole entry, change not shown, the tested form may be a part): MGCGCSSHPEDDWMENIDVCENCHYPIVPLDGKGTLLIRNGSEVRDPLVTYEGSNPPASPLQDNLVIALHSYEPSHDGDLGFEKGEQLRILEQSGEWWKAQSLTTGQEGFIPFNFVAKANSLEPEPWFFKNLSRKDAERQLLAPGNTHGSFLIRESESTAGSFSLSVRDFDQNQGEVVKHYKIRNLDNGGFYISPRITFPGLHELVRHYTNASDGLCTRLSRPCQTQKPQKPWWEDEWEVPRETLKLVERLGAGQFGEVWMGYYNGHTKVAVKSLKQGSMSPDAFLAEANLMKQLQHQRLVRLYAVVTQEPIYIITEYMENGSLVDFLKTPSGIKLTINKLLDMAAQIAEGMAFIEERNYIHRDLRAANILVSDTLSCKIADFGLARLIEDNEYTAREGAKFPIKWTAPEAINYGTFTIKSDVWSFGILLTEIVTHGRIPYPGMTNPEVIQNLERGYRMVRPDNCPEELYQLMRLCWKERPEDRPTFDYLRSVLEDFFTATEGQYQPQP
Description: Anchorage Independent Lck-Transformed Fibroblast Proliferation Assay
Rat2 fibroblasts stably transformed with a plasmid containing a CMV promotor controlled v-Src/Hu Lck fusion gene in which the catalytic domain of human Lck was inserted in place of the v-Src catalytic domain in the v-Src gene are used for the measurement of src dependent suspension growth. Ultra-low cluster plates (Costar # 3474) are seeded with 10,000 cells per well on Day 1. Compound is added in serial two-fold dilutions from 10 micromolar to 0.009 micromolar on Day 2 and MTS reagent (Promega) is added on Day 5 (100 microliters of MTS/medium mix+100 microliters of medium already on the cells and the absorbance is measured at 490 nm. The results are analyzed as follows to yield an IC50 for proliferation (micromolar units) as follow: % inhibition=(Abs490 nm sample−blank)/(Abs490 nm no cmpd control−blank)×100%. The results obtained for representative compounds of this invention are listed in Table 2. Multiple entries for a given compound indicate that it was tested multiple times.

[2] = tested on: Rat2 fibroblasts stably transformed with v-Src/Hu c-Src fusion gene; assay: Anchorage independent Src-transformed fibroblast proliferation assay; format: cell-based, rat
Description: Anchorage Independent Src-Transformed Fibroblast Proliferation Assay Rat2 fibroblasts stably transformed with a plasmid containing a CMV promotor controlled v-Src/Hu c-Src fusion gene in which the catalytic domain of human c-Src was inserted in place of the v-Src catalytic domain in the v-Src gene are used for the measurement of src dependent suspension growth. […] Multiple entries for a given compound indicate that it was tested multiple times.

[3] = Table 2, suspension growth, MTS readout Day 5, read-out: Lck cells IC50
[4] = Rattus norvegicus, Rat2, 120 h, Table 1, suspension growth, MTS readout Day 5, read-out: Src cells IC50
[5] = Table 1, suspension growth, MTS readout Day 5, read-out: Src cells IC50
[6] = Table 3, read-out: Lck Cells IC50
[7] = Rattus norvegicus, Rat2, Table 3, read-out: Src Cells IC50 μM or % inhib at 10 μM (IC50 values)
[8] = Table 3, read-out: Src Cells IC50 μM or % inhib at 10 μM (IC50 values)

COc1cc(Nc2c(C#N)cnc3cc(Br)sc23)c(Cl)cc1Cl [Example 3, 2-Bromo-7-[(2,4-dichloro-5-methoxyphenyl)amino]-thieno[3,2-b]pyridine-6-carbonitrile]
GI50 [1, 3]: 32000 nM
IC50 [2, 4]: 37 µM
melting point: 228 to 229 °C

COc1cc(Nc2c(C#N)cnc3cc(-c4ccc(CN5CCN(CCO)CC5)cc4)sc23)c(Cl)cc1Cl [Example 17, 7-[(2,4-Dichloro-5-methoxyphenyl)amino]-2-(4-{[4-(2-hydroxyethyl)piperazin-1-yl]methyl}phenyl)thieno[3,2-b]pyridine-6-carbonitrile]
GI50 [1, 3]: 140 nM
IC50 [2, 4]: 0.37 µM
melting point: 189 to 190 °C

COc1cc(Nc2c(C#N)cnc3cc(-c4csc(CN5CCOCC5)c4)sc23)c(Cl)cc1Cl [Example 39, 7-[(2,4-Dichloro-5-methoxyphenyl)amino]-2-[5-(morpholin-4-ylmethyl)thien-3-yl]thieno[3,2-b]pyridine-6-carbonitrile]
GI50 [1, 3]: 680 nM
IC50 [2, 4]: 0.85 µM
melting point: 209 to 212 °C

COc1cc(Nc2c(C#N)cnc3cc(-c4ccc(CN5CCN(C)CC5)cc4)sc23)cc(OC)c1OC [Example 58, 2-{4-[(4-Methylpiperazin-1-yl)methyl]phenyl}-7-[(3,4,5-trimethoxyphenyl)amino]thieno[3,2-b]pyridine-6-carbonitrile]
GI50 [1, 3]: 48 nM
IC50 [2, 4]: 0.165 µM
IC50 [2, 5]: 0.245 µM
melting point: 189 to 191 °C

COc1cc(Nc2c(C#N)cnc3cc(-c4cnc(CN5CCN(C)CC5)n4C)sc23)c(Cl)cc1Cl [Example 59, 7-[(2,4-Dichloro-5-methoxyphenyl)amino]-2-{1-methyl-2-[(4-methylpiperazin-1-yl)methyl]-1H-imidazol-5-yl}thieno[3,2-b]pyridine-6-carbonitrile]
GI50 [1, 3]: 270 nM and 320 nM
IC50 [2, 4]: 1.21 µM
IC50 [2, 5]: 2.29 µM
melting point: 234 to 235 °C

COc1cc(Nc2c(C#N)cnc3cc(-c4ccc(CN(C)C)cc4)sc23)cc(OC)c1OC [Example 61, 2-{4-[(Dimethylamino)methyl]phenyl}-7-[(3,4,5-trimethoxyphenyl)amino]thieno[3,2-b]pyridine-6-carbonitrile]
GI50 [1, 3]: 17 nM and 15 nM and 14 nM
IC50 [2, 4]: 0.217 µM
IC50 [2, 5]: 0.279 µM
melting point: 199 to 201 °C

COc1cc(Nc2c(C#N)cnc3cc(/C=C/c4ccccc4)sc23)c(Cl)cc1Cl [Example 64, 7-[(2,4-Dichloro-5-methoxyphenyl)amino]-2-[(E)-2-phenylvinyl]thieno[3,2-b]pyridine-6-carbonitrile]
GI50 [1, 6]: 7400 nM and 7900 nM
IC50 [2, 7]: 6.4 µM
IC50 [2, 8]: 5.6 µM
melting point: 236 to 238 °C

COc1cc(Nc2c(C#N)cnc3cc(/C=C/n4nccn4)sc23)c(Cl)cc1Cl [Example 66, 7-[(2,4-Dichloro-5-methoxyphenyl)amino]-2-[(E)-2-(2H-1,2,3-triazol-2-yl)vinyl]thieno[3,2-b]pyridine-6-carbonitrile]
GI50 [1, 6]: > 10000 nM
inhibition at 10 µM ([2]; Rattus norvegicus, Rat2, Table 3, at 10 μM, read-out: Src Cells IC50 μM or % inhib at 10 μM (% values)): 26%
Src Cells IC50 μM or % inhib at 10 μM (% values) ([2]; Table 3, at 10 μM): 26%, 26%
melting point: 315 to 316 °C

COc1cc(Nc2c(C#N)cnc3cc(-c4ccc(C5OCCO5)o4)sc23)c(Cl)cc1Cl [Example 68, 7-[(2,4-dichloro-5-methoxyphenyl)amino]-2-[5-(1,3-dioxolan-2-yl)-2-furyl]thieno[3,2-b]pyridine-6-carbonitrile]
GI50 [1, 6]: 2800 nM and 3000 nM
IC50 [2, 7]: 6.1 µM
IC50 [2, 8]: 6 µM
melting point: 187 to 189 °C

COc1cc(Nc2c(C#N)cnc3cc(-c4ccc(CN5CCN(C)CC5)o4)sc23)c(Cl)cc1Cl [Example 69, 7-[(2,4-dichloro-5-methoxyphenyl)amino]-2-{5-[(4-methylpiperazin-1-yl)methyl]-2-furyl}thieno[3,2-b]pyridine-6-carbonitrile]
GI50 [1, 6]: 1900 nM and 2200 nM
IC50 [2, 7]: 2.8 µM
IC50 [2, 8]: 3.4 µM
melting point: 215 to 217 °C

COc1cc(Nc2c(C#N)cnc3cc(-c4ccc(CN(C)C)o4)sc23)c(Cl)cc1Cl [Example 76, 7-[(2,4-dichloro-5-methoxyphenyl)amino]-2-{5-[(dimethylamino)methyl]-2-furyl}thieno[3,2-b]pyridine-6-carbonitrile]
GI50 [1, 6]: 910 nM and 990 nM
IC50 [2, 7]: 4.9 µM
IC50 [2, 8]: 2.6 µM
melting point: 200 to 202 °C

COc1cc(Nc2c(C#N)cnc3cc(-c4ccc(C5OCCO5)s4)sc23)c(Cl)cc1Cl [Example 77, 7-[(2,4-dichloro-5-methoxyphenyl)amino]-2-[5-(1,3-dioxolan-2-yl)thien-2-yl]thieno[3,2-b]pyridine-6-carbonitrile]
GI50 [1, 6]: 1900 nM and 1700 nM
IC50 [2, 7]: 2.4 µM
IC50 [2, 8]: 1.5 µM
melting point: 213 to 217 °C

COc1cc(Nc2c(C#N)cnc3cc(-c4ccc(CN(C)C)s4)sc23)c(Cl)cc1Cl [Example 88, 7-[(2,4-dichloro-5-methoxyphenyl)amino]-2-{5-[(dimethylamino)methyl]thien-2-yl}thieno[3,2-b]pyridine-6-carbonitrile]
GI50 [1, 6]: 160 nM and 250 nM
IC50 [2, 7]: 2.4 µM
IC50 [2, 8]: 2.3 µM
melting point: 210 to 212 °C

COc1cc(Nc2c(C#N)cnc3cc(-c4ccc(CNCc5ccncc5)cc4)sc23)c(Cl)cc1Cl [Example 89, 7-[(2,4-dichloro-5-methoxyphenyl)amino]-2-(4-{[(pyridin-4-ylmethyl)amino]methyl}phenyl)thieno[3,2-b]pyridine-6-carbonitrile]
GI50 [1, 6]: 1000 nM and 1060 nM
IC50 [2, 7]: 1.5 µM
IC50 [2, 8]: 1.21 µM
melting point: 128 to 130 °C

COc1cc(Nc2c(C#N)cnc3cc(C#Cc4ccc(CN(C)C)cn4)sc23)c(Cl)cc1Cl [Example 100, 7-[(2,4-dichloro-5-methoxyphenyl)amino]-2-({5-[(dimethylamino)methyl]pyridin-2-yl}ethynyl)thieno[3,2-b]pyridine-6-carbonitrile]
GI50 [1, 6]: 3340 nM and 1930 nM
IC50 [2, 7]: > 10 µM
melting point: 215 to 217 °C

COc1cc(Nc2c(C#N)cnc3cc(-c4ccc(N5CCOCC5)nc4)sc23)c(Cl)cc1Cl [Example 109, 7-[(2,4-dichloro-5-methoxyphenyl)amino]-2-(6-morpholin-4-ylpyridin-3-yl)thieno[3,2-b]pyridine-6-carbonitrile]
GI50 [1, 6]: 4500 nM
IC50 [2, 7]: > 10 µM
melting point: 225 to 227 °C

COc1cc(Nc2c(C#N)cnc3cc(-c4ccc(CN5CCN(c6ccccn6)CC5)cc4)sc23)c(Cl)cc1Cl [Example 112, 7-[(2,4-dichloro-5-methoxyphenyl)amino]-2-{4-[(4-pyridin-2-ylpiperazin-1-yl)methyl]phenyl}thieno[3,2-b]pyridine-6-carbonitrile]
GI50 [1, 6]: > 10000 nM
IC50 [2, 7]: > 10 µM
IC50 [2, 8]: 5.78 µM
melting point: 245 to 247 °C

COc1cc(Nc2c(C#N)cnc3cc(-c4ccc(CN5CCN(c6ccccc6)CC5)cc4)sc23)c(Cl)cc1Cl [Example 113, 7-[(2,4-dichloro-5-methoxyphenyl)amino]-2-{4-[(4-phenylpiperazin-1-yl)methyl]phenyl}thieno[3,2-b]pyridine-6-carbonitrile]
GI50 [1, 6]: > 10000 nM
melting point: 238 to 240 °C

CN1CCN(Cc2ccc(-c3cc4ncc(C#N)c(Nc5ccc(Cl)cc5Cl)c4s3)cc2)CC1 [Example 119, 7-[(2,4-dichlorophenyl)amino]-2-{4-[(4-methylpiperazin-1-yl)methyl]phenyl}thieno[3,2-b]pyridine-6-carbonitrile]
GI50 [1, 6]: 1220 nM and 1340 nM
melting point: 245 to 247 °C

COc1cc(Nc2c(C#N)cnc3cc(-c4ccc(CN5CCN(c6ccccc6OC)CC5)cc4)sc23)c(Cl)cc1Cl [Example 120, 7-[(2,4-dichloro-5-methoxyphenyl)amino]-2-(4-{[4-(2-methoxyphenyl)piperazin-1-yl]methyl}phenyl)thieno[3,2-b]pyridine-6-carbonitrile]
GI50 [1, 6]: 8900 nM and > 10000 nM
melting point: 176 to 179 °C

COc1cc(Nc2c(C#N)cnc3cc(-c4ccc(CNCCC(C)C)cc4)sc23)c(Cl)cc1Cl [Example 121, 7-[(2,4-dichloro-5-methoxyphenyl)amino]-2-(4-{[(3-methylbutyl)amino]methyl}phenyl)thieno[3,2-b]pyridine-6-carbonitrile]
GI50 [1, 6]: 525 nM and 576 nM and 951 nM
melting point: 195 to 197 °C

COc1cc(Nc2c(C#N)cnc3cc(-c4ccc(C(=O)N(C)C)cc4)sc23)c(Cl)cc1Cl [Example 136, 4-{6-cyano-7-[(2,4-dichloro-5-methoxyphenyl)amino]thieno[3,2-b]pyridin-2-yl}-N,N-dimethylbenzamide]
GI50 [1, 6]: 463 nM and 331 nM and 341 nM
melting point: 246 to 249 °C
